Experimental data as given in ChEMBL document CHEMBL3217558 (Medchemcomm, 2012).

Assays:
[1] = biological target: Voltage-gated inwardly rectifying potassium channel KCNH2 (Homo sapiens, UniProt Q12809)
[2] = biological target: Hepatocyte growth factor receptor (Homo sapiens, UniProt P08581)
Chain of Hepatocyte growth factor receptor (P08581 whole entry): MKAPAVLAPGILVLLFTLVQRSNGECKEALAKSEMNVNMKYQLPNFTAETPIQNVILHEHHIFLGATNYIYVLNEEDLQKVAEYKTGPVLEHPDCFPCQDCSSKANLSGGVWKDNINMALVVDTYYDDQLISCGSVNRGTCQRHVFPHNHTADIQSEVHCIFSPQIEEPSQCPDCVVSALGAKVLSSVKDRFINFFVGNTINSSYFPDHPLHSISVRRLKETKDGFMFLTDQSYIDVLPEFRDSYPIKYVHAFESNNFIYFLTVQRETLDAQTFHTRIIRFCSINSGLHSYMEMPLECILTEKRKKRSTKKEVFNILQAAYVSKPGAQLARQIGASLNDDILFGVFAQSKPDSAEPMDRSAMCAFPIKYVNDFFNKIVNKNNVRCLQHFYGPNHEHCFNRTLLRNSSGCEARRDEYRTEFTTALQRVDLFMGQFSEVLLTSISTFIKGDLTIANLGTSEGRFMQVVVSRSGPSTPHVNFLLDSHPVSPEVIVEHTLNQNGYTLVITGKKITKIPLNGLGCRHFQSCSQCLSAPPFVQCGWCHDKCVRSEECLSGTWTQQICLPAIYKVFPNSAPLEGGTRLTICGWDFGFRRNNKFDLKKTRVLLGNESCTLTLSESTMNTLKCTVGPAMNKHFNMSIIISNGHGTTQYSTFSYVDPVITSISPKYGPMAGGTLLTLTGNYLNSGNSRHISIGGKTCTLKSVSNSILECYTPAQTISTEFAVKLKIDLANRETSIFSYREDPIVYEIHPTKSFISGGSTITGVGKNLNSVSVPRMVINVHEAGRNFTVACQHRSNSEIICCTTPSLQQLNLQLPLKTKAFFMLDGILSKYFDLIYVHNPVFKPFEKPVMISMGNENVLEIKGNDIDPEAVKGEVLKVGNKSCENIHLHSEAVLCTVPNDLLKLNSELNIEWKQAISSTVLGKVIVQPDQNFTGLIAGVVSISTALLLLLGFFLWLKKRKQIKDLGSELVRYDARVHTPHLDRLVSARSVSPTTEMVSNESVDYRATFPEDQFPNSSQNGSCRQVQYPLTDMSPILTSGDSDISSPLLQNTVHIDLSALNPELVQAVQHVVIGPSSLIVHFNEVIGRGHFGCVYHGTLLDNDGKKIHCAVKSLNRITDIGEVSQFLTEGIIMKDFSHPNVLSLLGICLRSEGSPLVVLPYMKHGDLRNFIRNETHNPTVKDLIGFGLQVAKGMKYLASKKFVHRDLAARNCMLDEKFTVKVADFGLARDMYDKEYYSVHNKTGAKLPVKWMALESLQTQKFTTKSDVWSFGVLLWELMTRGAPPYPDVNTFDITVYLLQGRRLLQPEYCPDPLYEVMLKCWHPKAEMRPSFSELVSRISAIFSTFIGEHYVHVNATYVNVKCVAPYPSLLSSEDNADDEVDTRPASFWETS
Description: Inhibition of c-Met (unknown origin) using poly (Glu, Tyr) 4:1 as substrate after 60 mins by ELISA

Chain of Voltage-gated inwardly rectifying potassium channel KCNH2 (Q12809 whole entry): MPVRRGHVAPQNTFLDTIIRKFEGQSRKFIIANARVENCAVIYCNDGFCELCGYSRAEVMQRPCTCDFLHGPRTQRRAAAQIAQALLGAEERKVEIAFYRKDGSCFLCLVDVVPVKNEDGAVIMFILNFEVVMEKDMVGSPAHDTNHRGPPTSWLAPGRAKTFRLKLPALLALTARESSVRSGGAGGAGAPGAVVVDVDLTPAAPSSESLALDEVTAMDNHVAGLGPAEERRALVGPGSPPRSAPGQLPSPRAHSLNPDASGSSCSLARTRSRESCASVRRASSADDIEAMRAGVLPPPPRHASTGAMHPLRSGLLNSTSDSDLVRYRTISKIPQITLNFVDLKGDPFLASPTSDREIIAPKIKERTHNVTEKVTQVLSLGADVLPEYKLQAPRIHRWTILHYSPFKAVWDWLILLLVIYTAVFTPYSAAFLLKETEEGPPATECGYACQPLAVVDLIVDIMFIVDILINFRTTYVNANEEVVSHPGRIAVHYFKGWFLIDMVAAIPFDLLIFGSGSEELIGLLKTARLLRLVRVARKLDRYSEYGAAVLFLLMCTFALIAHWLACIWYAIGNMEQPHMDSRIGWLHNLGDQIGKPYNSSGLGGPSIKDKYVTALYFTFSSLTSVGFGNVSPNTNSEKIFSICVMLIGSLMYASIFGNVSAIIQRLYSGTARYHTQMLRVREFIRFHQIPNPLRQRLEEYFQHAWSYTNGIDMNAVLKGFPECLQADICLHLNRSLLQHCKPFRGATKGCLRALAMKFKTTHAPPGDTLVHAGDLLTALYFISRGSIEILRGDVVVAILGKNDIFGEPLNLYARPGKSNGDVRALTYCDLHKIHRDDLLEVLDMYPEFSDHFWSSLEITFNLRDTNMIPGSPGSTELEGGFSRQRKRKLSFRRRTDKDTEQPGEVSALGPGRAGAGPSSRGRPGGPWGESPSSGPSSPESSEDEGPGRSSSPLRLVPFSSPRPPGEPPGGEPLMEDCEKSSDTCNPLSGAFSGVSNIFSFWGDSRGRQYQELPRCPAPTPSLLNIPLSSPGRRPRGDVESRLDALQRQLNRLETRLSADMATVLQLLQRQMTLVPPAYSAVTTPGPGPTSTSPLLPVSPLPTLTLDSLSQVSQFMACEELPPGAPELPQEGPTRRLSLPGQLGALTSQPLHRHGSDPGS

Structure (SMILES)	IC50 [1]	IC50 [2]
CC(=O)c1cccc(CNc2cc(C(F)(F)F)cc3ncc(N4CCN(C)CC4)cc23)c1	93.6 µM	–
CCNC(=O)Nc1cccc(CNc2cc(C(F)(F)F)cc3ncc(N4CCN(C)CC4)cc23)c1	81.7 µM	–
[2H]C(Nc1cc(C(F)(F)F)cc2ncc(N3CCN(C(C)=O)CC3)cc12)c1cccc([N+](=O)[O-])c1 (stereo not drawn)	–	0.0016 µM
